Data on three molecules can be found in patent US7605175B2, “Inhibitors of cyclin-dependent kinases, compositions and uses related thereto” (GPC Biotech AG, priority 2001, dated 2009).

Like-named read-outs stand apart in the source and are kept apart here. A value given as a limit tells only on which side of the number the result lay.

Assay [1] deals with HCT-116 cells. Briefly: Cell cycle analysis with propidium iodide (PI FACS). Type of assay: cell-based, human. The following applies: HCT-116, 24, 48 and 72 hours. How it is done:
The percentage of cells in the G1, S and G2/M phases of the cell cycle was determined by staining DNA with propidium iodide and quantifying the number of cells with a 2N or 4N DNA complement by flow cytometry. Alterations in the distribution of cells across the cell cycle in response to exposure to the Cdk inhibitors was evaluated in this marmer.
3 sets of HCT-116 cells (100,000 cells/set) were cultured in the presence of a test compound in T-25 flasks according to Table 1 below. Analysis was performed at 24, 48 and 72 hours. Adherent cells were collected by trypsinization, combined with floating cells in Falcon 12×75 flow cytometric tubes, and harvested by centrifugation. The media was decanted from the cell pellet, 100 μl of PI stain was added and the cells were incubated at 37° C. for 20-25 minutes. The cell count was preferably no greater than 2×10^6-4×10^6/ml. An equal volume (100 μl) of PI salt was then added to the cells, which were then incubated at 4° C. for 1-2 hours. The stained cells were analyzed on a Becton Dickinson FACScan flow cytometer. Samples were protected from light.

The target of assay [2] is T1, Cdk2/cyclin E (Homo sapiens, UniProt P24941).
T1 construct: made in house; host or cells: Sf9 insect cells
Briefly: Biochemical kinase assay Cdk2/cyclin E. The following applies: Table 6. Put shortly: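 Sf9-expressed Cdk/cyclin heterodimers phosphorylate GST-Rb (residues 379–928, 40 μg) with 50 μM ATP plus [γ-33P]ATP, pH 7.5, 10% DMSO, 15 min at 30 °C. Compounds 1 nM–10 μM. 33P captured on glutathione-sepharose and scintillation-counted; activity relative to DMSO control after EDTA-background subtraction.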

For assay [3], the system named is adriamycin resistant cell line (ADR-res). The assay is described as follows: NCI panel (SRB), adriamycin resistant cell line. It is filed as cell-based. As to conditions: Homo sapiens. The source says:
The evaluation of compounds at the National Cancer Institute in their panel of 60 cell lines provides a wealth of information regarding efficacy in a wide range of tumor types and genetic backgrounds. Included within this panel are cell lines derived from leukemia, melanoma and cancers of the lung, colon, brain, ovary, breast, prostate and kidney. Use of this panel provides a measure of the efficacy of compounds in cells with alterations in many genes that are associated with neoplastic transformation including p53 and Her2/Neu as well as those involved in metabolism and those which confer multi-drug resistance. The data generated in these cell lines with the protocol described below can be used to evaluate the activity of compounds.
Cells were grown in RPMI-1640 10% FCS and plated in 96 well micro-titer plates at densities ranging from 5,000 to 40,000 cells/well. The plates were incubated for 24 hours at 37° C., 5% CO2 for 24 hours. […]
The effect of the compound on cellular viability was determined with the Sulforhodamine B (SRB) assay, which measures total protein. […] The bound stain was solubilized with 10 mM trizma base and the absorbance was read on a plate reader at […].

Assay [4] has as its system HCT-116 cells. Briefly: BrdU incorporation assay. It is filed as cell-based. The following applies: Homo sapiens, read-out: Brd U, concentration that inhibits BrdU incorporation by 50%. As for the experimental part:
This method measured the percentage of cells that incorporated the nucleotide analog, BrdU, into newly synthesized DNA as cells progressed through the S phase of the cell cycle. The inhibition of BrdU incorporation was used as a measure of a Cdk inhibitor's effect on S phase progression and DNA replication.
3 sets of HCT-116 cells (100,000 cells/set) were plated in T25 flasks and incubated with a test compound as above. Analysis was done at 24, 48, and 72 hours. BrdU was added to each T-25 flask from a stock of 10 mg/ml to a final concentration of 10 μM and the cells were incubated for an additional 16-18 hours at 37° C. The cells were then prepared for flow cytometric analysis according to manufacturer's protocol (BrdU Flow kit, BD-Pharmingen catalogue #2354KK) as follows:
Cells were harvested (adherent and floating) from the T25 flasks directly into Falcon 12×75 flow cytometric tubes as above followed by fixation and permeabilization with the addition of 100 μl of Cytofix/Cytoperm buffer (30 minutes, room temperature). The cells were then washed with 1 ml of Perm Wash buffer and the cell pellets were resuspended in 100 μl Cytoperm Plus buffer and incubated on ice for 10 minutes. The cells were then washed again with 1 ml of Perm Wash buffer and the fixation was repeated in 100 μl of Cytofix/Cyto Perm buffer for 10 minutes at room temperature. The cells were then washed with 1 ml of Perm Wash buffer. The cells were next treated for one hour at 37° C. with 100 μl DNase to expose incorporated BrdU followed by another wash step with 1 ml of Perm Wash buffer. […] Cells were protected from light and incubated at room temperature for 20-30 minutes. Following the incubation, the cells were washed with 1 ml of Perm Wash buffer, resuspended in 300 μl of 2% FBS in PBS, and analyzed on the flow cytometer. Results are presented in Table 2 as the concentration of compound (μM) that inhibits of BrdU incorporation by 50%.

Turning to `CC(C)N1CCN(C(=O)COc2ccc(-c3[nH]nc4c3C(=O)c3c(NC(=O)NN5CCOCC5)cccc3-4)cc2)CC1.Cl` [Compound A37], the “Effect on cell cycle distribution (PI staining)” value in assay [1] was “cells are terminally arrested in G1 and G2, with evidence of apoptosis and endo-reduplication”. The same molecule returned an IC50 in assay [2] of under 100 nM.
On to `COCCN1CCN(Cc2ccc(-c3[nH]nc4c3C(=O)c3c(NC(=O)NN5CCOCC5)cccc3-4)cc2)CC1.Cl.Cl` [Compound B16, N-[3-(4-{[4-(2-methoxyethyl)piperazinyl]methyl}phenyl)-4-oxoindeno[2,3-d]pyrazol-5-yl](morpholin-4-ylamino)carboxamide dihydrochloride], for which the “Effect on cell cycle distribution (PI staining)” value in assay [1] is “Analogous results”. Moreover, in assay [2], the IC50 is under 10 nM.
Regarding `CC(C)c1nn(-c2c(Cl)cccc2Cl)c2nc(Cc3ccc(O)c(CN4CCN(C(C)C)CC4)c3)[nH]c(=O)c12` [Compound C], the IC50 was under 100 nM in assay [3]; under 100 nM in assay [4] (HCT-116, 24 h); under 100 nM in assay [4] (HCT-116, 48 h).
